Data published in patent US20250262212A1, “COMPOSITION FOR SUPPRESSING PROLIFERATION OF CANCER STEM CELLS” (Chemiteras, Inc., priority 2022, published 2025).

Test system: cancer stem cells (12037NS)
Assay: Proliferation suppressive effect on cancer stem cells (survival rate, WST-8 / Cell Counting Kit-8)
Assay type: cell-based
Settings: for Survival Rate(%) of cancer stem cells: DMSO control = 100; for proliferation suppressive effect on cancer stem cells (in words): 10 μM, 3 days, verbal assessment
Method: The proliferation suppressive effect of the triazolohalopyrimidine compounds on cancer stem cells was evaluated as follows.
The proliferation suppressive effect of triazolohalopyrimidine compounds on cancer stem cells was evaluated using commercially available anticancer agents and known compounds known to have antitumor effect.
12037NS was used as cancer stem cells. 12037NS are the cells obtained by isolation and purification according to the method referred in Nature 432, No. 18, 396-401 (2004). 12037NS cells are susceptible to cytotoxicity by DMSO (dimethylsulfoxide) used for dilution of test compounds. Accordingly, DMSO was used as control.
Used cancer stem cells were 12037NS which are cultivated cancer stem cells. 12037NS are the cells obtained by isolation and purification according to the method referred in Nature 432, No. 18, 396-401 (2004).
Cancer stem cells (12037NS) were seededat 3.0×10^3 cells/well in a 96-well plate using DMEM (Dulbeco's Modified Eagle Medium).
Test compounds shown in Table 3 were diluted with DMSO and then further diluted with PBS (phosphate buffered saline) to prepare test solutions. The test solution was added to each well to become a final concentration of 10 μM. For controls, DMSO was added to the wells to become a final concentration of 0.1% (v/v).
After adding the test solution, the plate was incubated at 37° C. in a 5% CO2 environment for 3 days.
After incubation, water-soluble tetrazonium salt WST-8 (“Cell Counting Kit-8” coloring reagent; manufactured by Dojindo Laboratories) was added at 10 μL/well to each well and the plate was placed in a 37° C., 5% CO2 environment, and incubated for 2 hours.
The absorbance at 450 nm wavelength was measured for the culture solution in each well of the plate after incubation. WST-8 is reduced by intracellular dehydrogenase to produce water-soluble formazan. The number of living cells can be measured by measuring the absorbance of this formazan at 450 nm.
The survival rate of cancer stem cells was determined by comparing the measured number of living cells with the number of seeded cells.
In the same manner as in [Test Example 1], the survival rate of cancer stem cells was determined for the test compounds shown in Table 4. Triazolohalopyrimidine compound (I)g means 2-(4-hydroxyphenyl)-5-chloro-8-methyl[1.2.4]triazolo[1,5-c]pyrimidine.

[1] = Test Example 1, test compound 10 μM, 3 days incubation
[2] = Test Example 2, same manner as Test Example 1 (10 μM, 3 days)

| Structure (SMILES) | Survival Rate(%) of cancer stem cells [1] | proliferation suppressive effect on cancer stem cells (in words) | Survival Rate(%) of cancer stem cells [2] |
| --- | --- | --- | --- |
| O=c1[nH]cc(F)c(=O)[nH]1 [5-Fluorouracil] | 80% |  |  |
| Cc1cnc(Cl)n2nc(-c3ccc(Br)cc3)nc12 [Compound (I)d, 2-(4-bromophenyl)-5-chloro-8-methyl[1.2.4]triazolo[1,5-c]pyrimidine] |  | significantly superior to those of commercially available anticancer agents |  |
| Cc1cnc(Cl)n2nc(-c3ccc(Cl)c(Cl)c3)nc12 [Compound (I)f, 2-(3,4-dichlorophenyl)-5-chloro-8-methyl[1.2.4]triazolo[1,5-c]pyrimidine] |  | significantly superior to those of commercially available anticancer agents |  |
| Cc1cnc(Cl)n2nc(-c3ccc(O)cc3)nc12 [Compound (I)g, 2-(4-hydroxyphenyl)-5-chloro-8-methyl[1.2.4]triazolo[1,5-c]pyrimidine] |  |  | 45% |
| Cn1nnc2c(C(N)=O)ncn2c1=O [Temozolomide] | 65% |  | 75% |
